We go through nine compounds from US8088791B2, “Antibacterial agents” (Biots Scientific Management Pty Ltd, priority 2006, dated 2012).

SMILES strings stand for the structures. Converted amounts (≈) assume the structure as drawn. Like-named read-outs stand apart in the source and are kept apart here.

The test system of one data set is Bacillus subtilis 168CA. In words: Minimum Inhibitory Concentration (MIC) testing, broth microdilution, Bacillus subtilis. Type of data set: cell-based. The following applies: Bacillus subtilis 168CA; read-out: Bacillus subtilis MICs Activity. The gist of the method: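 Broth microdilution followed NCCLS M7-A5, in rich broth such as Mueller Hinton, inoculum at OD 0.09 diluted 1:100, compounds in 1.6% DMSO before inoculum. After 16–20 h at 37 °C, MIC was the lowest concentration without visible growth. Score A: ≦8 μg/ml, B: 16–64 μg/ml, C: >64 μg/ml.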

Data set [1] concerns Staphylococcus aureus ATCC29213. In words: Minimum Inhibitory Concentration (MIC) testing, broth microdilution, Staphylococcus aureus. The data set is classed as cell-based. The following applies: Staphylococcus aureus ATCC29213; read-out: Staphylococcus aureus MICs Activity. A digest of the protocol: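 Broth microdilution per NCCLS M7-A5 in Mueller Hinton broth, with compound in 1.6% DMSO and inoculum at OD 0.09 diluted 1:100. Plates incubated 16–20 h at 37°C. MIC is the lowest concentration with no visible growth; scored A ≤8, B 16–64, C >64 μg/ml.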

Data set [2] relates to various bacterial species. In words: Minimum Inhibitory Concentration (MIC) testing, broth microdilution, other bacterial species. Type of data set: cell-based. The procedure: (§1) Compounds of this invention were tested for antimicrobial activity by susceptibility testing in liquid media. MICs for compounds against each strain were determined by a broth microdilution method according to the National Committee for Clinical Laboratory Standards (NCCLS) guidelines. (NCCLS. 2000. Methods for dilution antimicrobial susceptibility tests for bacteria that grow aerobically—fifth edition. Approved standard M7-A5. NCCLS, Wayne, Pa.)
(§2) Briefly, test compounds are prepared in 100 μl of 1.6% DMSO solution in multiwell plates. Several bacterial colonies from a freshly streaked plate are transferred to an appropriate rich broth, such as Mueller Hinton. The cell suspension is adjusted to an optical density of 0.09 and further diluted 1:100 with warm 2× broth. This cell suspension is dispensed into the wells containing compound solution so that the final volume is 200 μl. The plates are incubated overnight (16-20 hours) at 37° C. and turbidity is scored by eye and quantified spectrophotometrically. The MIC is defined as the lowest concentration inhibiting visible growth.
Some of the Examples were also tested for activity against other bacterial species. […] Activities were again scored as ‘A’ if the MIC was ≦8 micrograms/ml, ‘B’ if the MIC was 16 to 64 micrograms/ml and ‘C’ if the MIC was greater than 64 micrograms/ml.

Data set [3] deals with staphylococcal clinical isolates. In words: Minimum Inhibitory Concentration (MIC) testing, broth microdilution, staphylococcal clinical isolates. Type of data set: cell-based. Particulars: for MIC: read-out: MIC Activity against clinical isolate. The procedure: as §1, §2
Some of the Examples were also tested for activity against staphylococcal clinical isolates. […] Activities were again scored as ‘A’ if the MIC was ≦8 micrograms/ml, ‘B’ if the MIC was 16 to 64 micrograms/ml and ‘C’ if the MIC was greater than 64 micrograms/ml.

Setting [4] is: Bacillus cereus, ATCC14579, read-out: MIC Activity Bacillus cereus ATCC 14579.
The mark [5] stands for this setting: Staphylococcus saprophyticus, ATCC15305, read-out: MIC Activity Staphylococcus saprophyticus ATCC 15305.
The mark [6] stands for this setting: S. aureus No. 753, Oxacillin S, Hospital.
[7] abbreviates: S. aureus No. 757, Oxacillin R, Tet-R, MI-R, Hospital (tetM).
The mark [8] stands for this setting: S. aureus No. 1134, Oxacillin S, Hospital.
The mark [9] stands for this setting: S. aureus No. 1135, Oxacillin R, Van-S, LZD-S, Hospital.
Where [10] appears, read: S. aureus No. 1651, Oxacillin R, Van-S, LZD-R, Hospital (G2576T, G).
Setting [11] is: S. aureus No. 1652, Oxacillin R, Van-S, LZD-R, Hospital (T2500T, A).
[12] abbreviates: S. aureus No. 1662, Oxacillin S, Hospital.
The mark [13] stands for this setting: S. aureus No. 1725, Oxacillin R, Van-S, LZD-R, Hospital (G2576T).
[14] abbreviates: S. aureus No. 1729, Oxacillin R, Tet-R, MI-R, Hospital.
Setting [15] is: S. aureus No. 2011, Oxacillin R, Tet-R, MI-S, Hospital (tetK).
Where [16] appears, read: S. aureus No. 2012, Oxacillin R, Van-I, LZD-S, Hospital.
[17] abbreviates: S. aureus No. 2018, Oxacillin R, Van-I, LZD-S, Hospital.
The mark [18] stands for this setting: S. aureus No. 2142, Oxacillin R, CC-S, SXT-S, Community.
Where [19] appears, read: S. aureus No. 2143, Oxacillin R, Rif-R, Community.
The mark [20] stands for this setting: S. aureus No. 2147, Oxacillin R, CC-S, SXT-S, Community.
Where [21] appears, read: S. aureus No. 2149, Oxacillin R, CC-R (iMLS), SXT-S, Community.
Where [22] appears, read: S. aureus No. 2150, Oxacillin R, CC-R, SXT-S, Community.
[23] abbreviates: S. aureus No. 2158, Oxacillin R, CC-R, Doxy-I, Community.
[24] abbreviates: S. aureus No. 2175, Oxacillin R, TMP-R, Community.
Setting [25] is: S. epidermidis No. 831, Oxacillin R.
The mark [26] stands for this setting: S. epidermidis No. 1139, Oxacillin S.
The mark [27] stands for this setting: S. epidermidis No. 1142, Oxacillin R.
Setting [28] is: S. epidermidis No. 1144, Oxacillin R.
Setting [29] is: Staphylococcus aureus, ATCC29213, S. aureus No. 0100, Oxacillin S, ATCC 29213.
Where [30] appears, read: Staphylococcus aureus, S. aureus No. 1015, Oxacillin R, Van-S, LZD-S, Hospital.
Setting [31] is: Staphylococcus epidermidis, S. epidermidis No. 835, Oxacillin S.

`NC(=O)c1c(F)ccc(OCc2nc3cc(-c4ccncc4)ccc3s2)c1F` [Example 232, 2,6-Difluoro-3-[5-(4-pyridinyl)-1,3-benzothiazol-2-yl]methoxybenzenecarboxamide] gave a melting point of 255 to 258 °C. The MIC in the data set on Bacillus subtilis 168CA fell in the range of 16 to 64 µg/mL (≈ 40.3 to 161 µM). In addition, in data set [1], the MIC is < 8 µg/mL.
On to `NC(=O)c1ccnc(OCc2nc3cc(Cl)ccc3s2)c1` [Example 222, 2-[(5-Chloro-1,3-benzothiazol-2-yl)methoxy]isonicotinamide], for which the melting point lay within 220 to 222 °C. The MIC in the data set on Bacillus subtilis 168CA was < 8 µg/mL. The MIC in data set [1] was < 8 µg/mL.
Consider `CCc1cccc2sc(COc3ccc(F)c(C(N)=O)c3F)nc12` [Example 223, 3-[(4-Ethyl-1,3-benzothiazol-2-yl)methoxy]-2,6-difluorobenzenecarboxamide], for which the melting point lay within 184 to 186 °C. Further, the MIC with Bacillus subtilis 168CA was < 8 µg/mL. For the same compound, the MIC in data set [1] is < 8 µg/mL.
Take `Cc1ccc(-c2nc(COc3ccc(F)c(C(N)=O)c3F)cs2)cc1` [Example 236, 2,6-Difluoro-3-[2-(4-methylphenyl)-1,3-thiazol-4-yl]methoxybenzenecarboxamide]: the MIC (in the data set with Bacillus subtilis 168CA; in data set [1]; in data set [2] (setting [4]); in data set [2] (setting [5]); in data set [3] (setting [29]); in data set [3] (setting [30])) was < 8 µg/mL in each case. Moreover, the MIC in data set [3] (setting [31]) was < 8 µg/mL. The “MIC Activity against clinical isolate” value in data set [3] (setting [6]), in data set [3] (setting [7]), in data set [3] (setting [8]), in data set [3] (setting [9]), in data set [3] (setting [10]) and in data set [3] (setting [11]) was “A (‘A’ if the MIC was ≦8 micrograms/ml)” in each case. The “MIC Activity against clinical isolate” value in data set [3] (setting [12]), in data set [3] (setting [13]), in data set [3] (setting [14]), in data set [3] (setting [15]), in data set [3] (setting [16]) and in data set [3] (setting [17]) was “A (‘A’ if the MIC was ≦8 micrograms/ml)” throughout. Besides, the “MIC Activity against clinical isolate” value in data set [3] (setting [18]), in data set [3] (setting [19]), in data set [3] (setting [20]), in data set [3] (setting [21]), in data set [3] (setting [22]) and in data set [3] (setting [23]) was “A (‘A’ if the MIC was ≦8 micrograms/ml)” each time. Besides, the “MIC Activity against clinical isolate” value in data set [3] (setting [24]), in data set [3] (setting [25]), in data set [3] (setting [26]), in data set [3] (setting [27]) and in data set [3] (setting [28]) was “A (‘A’ if the MIC was ≦8 micrograms/ml)” in each case.
Compound `NC(=O)c1c(F)ccc(OCc2nc3ccc(Cl)cc3s2)c1F` [Example 227, 3-[(6-Chloro-1,3-benzothiazol-2-yl)methoxy]-2,6-difluorobenzenecarboxamide] displayed a melting point of 190 to 191 °C. Moreover, in the data set with Bacillus subtilis 168CA, the MIC was < 8 µg/mL. Also, the MIC in data set [1] was < 8 µg/mL.
For the compound `NC(=O)c1cccc(OCCCCCCCc2ccsc2)c1` [Example 63, 3-{[7-(3-Thienyl)heptyl]oxy}benzenecarboxamide], the melting point lay in the range of 97 to 100 °C. Further, the MIC in the data set with Bacillus subtilis 168CA is < 8 µg/mL.
The like results for `Cc1ccc(S(=O)(=O)OCCCCCCCCCOc2cccc(C(N)=O)c2)cc1` [Example 92, 9-[3-(Aminocarbonyl)phenoxy]nonyl 4-methylbenzenesulfonate] were, in that order, 78 to 80 °C and < 8 µg/mL.
Consider `NC(=O)c1c(F)ccc(OCc2nc3cc(C(F)(F)F)ccc3s2)c1F` [Example 217, 2,6-Difluoro-3-[5-(trifluoromethyl)-1,3-benzothiazol-2-yl]methoxybenzenecarboxamide], for which the MIC with Bacillus subtilis 168CA was < 8 µg/mL; in data set [1], < 8 µg/mL; in data set [2] (setting [4]), < 8 µg/mL; in data set [2] (Staphylococcus epidermidis, ATCC12228, read-out: MIC Activity Staphylococcus epidermidis ATCC 12228), < 8 µg/mL; in data set [2] (setting [5]), < 8 µg/mL; in data set [3] (setting [29]), < 8 µg/mL. Also, the MIC in data set [3] (setting [30]) and in data set [3] (setting [31]) was < 8 µg/mL in each case. In addition, the “MIC Activity against clinical isolate” value in data set [3] (setting [6]), in data set [3] (setting [7]), in data set [3] (setting [8]), in data set [3] (setting [9]), in data set [3] (setting [10]) and in data set [3] (setting [11]) was “A (‘A’ if the MIC was ≦8 micrograms/ml)” each time. Besides, the “MIC Activity against clinical isolate” value in data set [3] (setting [12]), in data set [3] (setting [13]), in data set [3] (setting [14]), in data set [3] (setting [15]), in data set [3] (setting [16]) and in data set [3] (setting [17]) was “A (‘A’ if the MIC was ≦8 micrograms/ml)” in each case. For the same compound, the “MIC Activity against clinical isolate” value in data set [3] (setting [18]), in data set [3] (setting [19]), in data set [3] (setting [20]), in data set [3] (setting [21]), in data set [3] (setting [22]) and in data set [3] (setting [23]) was “A (‘A’ if the MIC was ≦8 micrograms/ml)” in each case. In addition, the “MIC Activity against clinical isolate” value in data set [3] (setting [24]), in data set [3] (setting [25]), in data set [3] (setting [26]), in data set [3] (setting [27]) and in data set [3] (setting [28]) was “A (‘A’ if the MIC was ≦8 micrograms/ml)” throughout.
`Cc1cc(COc2ccc(F)c(C(N)=O)c2F)ccn1` [Example 198, 2,6-Difluoro-3-[(2-methyl-4-pyridinyl)methoxy]benzenecarboxamide] registered a melting point of 185 to 186 °C. In addition, the MIC in the data set with Bacillus subtilis 168CA lay within 16 to 64 µg/mL (≈ 57.5 to 230 µM).
